system: IL-6; conditions: three-component LNP based on the compound, SARS-CoV-2 antigen mRNA, 30 µg intramuscular; compared with four-component LNP of ALC-0315; FIG. 4

SMILES | expression levels of the systemic inflammatory factor IL-6
CCCCCCCCC(CCCCCC)C(=O)OCCCCCCN(CCCCCCOC(=O)O[C@H]1CC[C@@]2(C)C(=CC[C@H]3[C@@H]4CC[C@H]([C@H](C)CCCC(C)C)[C@@]4(C)CC[C@@H]32)C1)CCCn1ccnc1 (stereo partly drawn) [Compound 6] | significantly reduced
CCCCCCCCC(CCCCCC)C(=O)OCCCCCCN(CCCn1ccnc1)CCOC(=O)O[C@H]1CC[C@@]2(C)C(=CC[C@H]3[C@@H]4CC[C@H]([C@H](C)CCCC(C)C)[C@@]4(C)CC[C@@H]32)C1 (stereo partly drawn) [Compound 11] | significantly reduced
CCCCCCCCC(CCCCCC)C(=O)OCCCCCCN(CCCCO)CCCCCCOC(=O)O[C@H]1CC[C@@]2(C)C(=CC[C@H]3[C@@H]4CC[C@H]([C@H](C)CCCC(C)C)[C@@]4(C)CC[C@@H]32)C1 (stereo partly drawn) [Compound 1] | significantly reduced
